Results: US20120100105A1, “AGENT AND METHOD FOR TREATING REFRACTORY CHRONIC HEPATITIS C” (MEIJI SEIKA PHARMA CO., LTD., priority 2009, published 2012)

Experiments:
genotype 1b HCV [1] = test: Antiviral effect of 22β-methoxyolean-12-ene-3β,24(4β)-diol and PEG-IFN in refractory chronic hepatitis C (LVR case); blood HCV load by TaqMan PCR; assay type: in vivo, human; details: for Ratio of negativity achieved in blood HCV after 12 weeks from administrations (age) / Ratio of negativity achieved in blood HCV after 12 weeks from administrations (sex): LVR case
Protocol: Subjects were 21 patients (9 men, 12 women) infected with genotype 1b HCV and having chronic hepatitis C. […] To these subject patients in a refractory chronic hepatitis C case, a fine granule containing 25 mg or 400 mg of […] was orally administered twice a day and 180 μg of PEG-IFN-α-2a (Pegasys: manufactured by Roche Holding AG and Chugai Pharmaceutical Co., Ltd.) was subcutaneously administered per week. […] The blood HCV load was measured using the TaqMan® PCR method, and the baseline of negativity was below 1.2 Log IU/mL.
The backgrounds of all the patients in the two administration groups are as follows. […] These exceeded the baseline, 5.00 Log IU/mL, of the high viral load, and all the patients were infected with genotype 1b.

genotype 1b HCV [2] = test: Antiviral effect of 22β-methoxyolean-12-ene-3β,24(4β)-diol and PEG-IFN in refractory chronic hepatitis C (NR case); blood HCV load by TaqMan PCR; assay type: in vivo, human; details: for Ratio of negativity achieved in blood HCV after 24 weeks from administrations: NR-case patients N=6; for Ratio of negativity achieved in blood HCV after 24 weeks from administrations (age) / Ratio of negativity achieved in blood HCV after 24 weeks from administrations (sex): NR case
Protocol: Subjects were the following patients (12 in total; 7 men, 5 women) who had been infected with genotype 1b HCV and had chronic hepatitis C and who were particularly considered to be highly refractory.
To these subject patients (NR case), a fine granule containing 25 mg or 400 mg of 22β-methoxyolean-12-ene-3β,24(4β)-diol was orally administered twice a day and 180 μg of PEG-IFN-α-2a (Pegasys: Roche Holding AG and Chugai Pharmaceutical Co., Ltd.) was subcutaneously administered per week. These administrations were continued for 24 weeks (hereinafter, the patients were referred to as a “50 mg/day administration group” or an “800 mg/day administration group”). The transitions of the blood HCV load and safety (clinical test value abnormality: blood hemoglobin value) before the administrations and up to 24 weeks were examined. The blood HCV load was measured using the TaqMan® PCR method, and the baseline of negativity was below 1.2 Log IU/mL.
The backgrounds of all the patients in the two administration groups are as follows. As for the sex, there were 7 men (58.3%) and 5 women […]. As for the age, the average age was 58.3, the youngest was 43 years old, and the oldest was 69 years old. With the baseline of 60 years old, there were 6 people who were under 60 years old (50.0%) and 6 people who were 60 years old or above (50.0%). The average blood HCV load of the patients before the administrations was 6.66 Log IU/mL with the minimum load of 5.30 Log IU/mL and the maximum load of 7.40 Log IU/mL. These exceeded the baseline, 5.00 Log IU/mL, of the high viral load, and all the patients were infected with genotype 1b.

HCV = details: without ribavirin; cited from earlier work
[3] = 60 years old or above, 50 mg/day with PEG-IFN-α-2a
[4] = 60 years old or above, 800 mg/day with PEG-IFN-α-2a
[5] = 60 years old or above, total of both doses with PEG-IFN-α-2a
[6] = Men, 50 mg/day with PEG-IFN-α-2a
[7] = Men, 800 mg/day with PEG-IFN-α-2a
[8] = Men, total of both doses with PEG-IFN-α-2a
[9] = Women, 50 mg/day with PEG-IFN-α-2a
[10] = Women, 800 mg/day with PEG-IFN-α-2a
[11] = Women, total of both doses with PEG-IFN-α-2a
[12] = under 60 years old, 50 mg/day with PEG-IFN-α-2a
[13] = under 60 years old, 800 mg/day with PEG-IFN-α-2a
[14] = under 60 years old, total of both doses with PEG-IFN-α-2a

CO[C@@H]1CC(C)(C)C[C@H]2C3=CC[C@@H]4[C@@]5(C)CC[C@H](O)[C@](C)(CO)[C@@H]5CC[C@@]4(C)[C@]3(C)CC[C@@]12C [22β-methoxyolean-12-ene-3β,24(4β)-diol]
Ratio of negativity achieved in blood HCV after 12 weeks from administrations (genotype 1b HCV [1]; 50 mg/day (25 mg orally twice a day) combined with PEG-IFN-α-2a 180 μg/week s.c., LVR-case patients N=11, negativity below 1.2 Log IU/mL): 63.6% (7/11) | Ratio of negativity achieved in blood HCV after 12 weeks from administrations (genotype 1b HCV [1]; 800 mg/day (400 mg orally twice a day) combined with PEG-IFN-α-2a 180 μg/week s.c., LVR-case patients N=10): 50.0% (5/10) | Ratio of negativity achieved in blood HCV after 12 weeks from administrations (age) (genotype 1b HCV [1]; [3]): 75.0% (6/8) | Ratio of negativity achieved in blood HCV after 12 weeks from administrations (age) (genotype 1b HCV [1]; [4]): 25.0% (1/4) | Ratio of negativity achieved in blood HCV after 12 weeks from administrations (age) (genotype 1b HCV [1]; [5]): 58.3% (7/12) | Ratio of negativity achieved in blood HCV after 12 weeks from administrations (sex) (genotype 1b HCV [1]; [6]): 60.0% (3/5) | Ratio of negativity achieved in blood HCV after 12 weeks from administrations (sex) (genotype 1b HCV [1]; [7]): 50.0% (2/4) | Ratio of negativity achieved in blood HCV after 12 weeks from administrations (sex) (genotype 1b HCV [1]; [8]): 55.6% (5/9) | Ratio of negativity achieved in blood HCV after 12 weeks from administrations (sex) (genotype 1b HCV [1]; [9]): 66.7% (4/6) | Ratio of negativity achieved in blood HCV after 12 weeks from administrations (sex) (genotype 1b HCV [1]; [10]): 50.0% (3/6) | Ratio of negativity achieved in blood HCV after 12 weeks from administrations (sex) (genotype 1b HCV [1]; [11]): 58.3% (7/12) | Blood HCV load continued to be negative for 48 weeks of the administration period (genotype 1b HCV [1]; patients negative by 12 weeks whose administrations (25 or 400 mg twice a day with PEG-IFN-α-2a 180 μg/week) were continued up to 48 weeks): two out of three patients | Relapse after the non-treatment period of subsequent 24 weeks (genotype 1b HCV [1]; the patients negative through 48 weeks of administration with PEG-IFN-α-2a, complete recovery was achieved): no relapse occurred | Ratio of negativity achieved in blood HCV after 12 weeks from administrations (age) (genotype 1b HCV [1]; [12]): 33.3% (1/3) | Ratio of negativity achieved in blood HCV after 12 weeks from administrations (age) (genotype 1b HCV [1]; [13]): 66.7% (4/6) | Ratio of negativity achieved in blood HCV after 12 weeks from administrations (age) (genotype 1b HCV [1]; [14]): 55.6% (5/9) | Ratio of negativity achieved in blood HCV after 24 weeks from administrations (genotype 1b HCV [2]; 50 mg/day (25 mg orally twice a day) combined with PEG-IFN-α-2a 180 μg/week s.c., negativity below 1.2 Log IU/mL): 50.0% (3/6) | Ratio of negativity achieved in blood HCV after 24 weeks from administrations (genotype 1b HCV [2]; 800 mg/day (400 mg orally twice a day) combined with PEG-IFN-α-2a 180 μg/week s.c.): 50.0% (3/6) | Ratio of negativity achieved in blood HCV after 24 weeks from administrations (age) (genotype 1b HCV [2]; [3]): 50.0% (1/2) | Ratio of negativity achieved in blood HCV after 24 weeks from administrations (age) (genotype 1b HCV [2]; [4]): 50.0% (2/4) | Ratio of negativity achieved in blood HCV after 24 weeks from administrations (age) (genotype 1b HCV [2]; [5]): 50.0% (3/6) | Ratio of negativity achieved in blood HCV after 24 weeks from administrations (sex) (genotype 1b HCV [2]; [6]): 50.0% (2/4) | Ratio of negativity achieved in blood HCV after 24 weeks from administrations (sex) (genotype 1b HCV [2]; [7]): 33.3% (1/3) | Ratio of negativity achieved in blood HCV after 24 weeks from administrations (sex) (genotype 1b HCV [2]; [8]): 42.9% (3/7) | Ratio of negativity achieved in blood HCV after 24 weeks from administrations (sex) (genotype 1b HCV [2]; [9]): 50.0% (1/2) | Ratio of negativity achieved in blood HCV after 24 weeks from administrations (sex) (genotype 1b HCV [2]; [10]): 66.7% (2/3) | Ratio of negativity achieved in blood HCV after 24 weeks from administrations (sex) (genotype 1b HCV [2]; [11]): 60.0% (3/5) | Ratio of negativity achieved in blood HCV after 24 weeks from administrations (age) (genotype 1b HCV [2]; [12]): 50.0% (2/4) | Ratio of negativity achieved in blood HCV after 24 weeks from administrations (age) (genotype 1b HCV [2]; [13]): 50.0% (1/2) | Ratio of negativity achieved in blood HCV after 24 weeks from administrations (age) (genotype 1b HCV [2]; [14]): 50.0% (3/6) | Anti-HCV activity in combination with an IFN (HCV): synergistic anti-HCV activity
